Results from ChEMBL document CHEMBL5724914, “Linking interpersonal differences in gut microbiota composition and drug biotransformation activity” (2024).

Key:
[1] = human gut metagenome, 24 h, 2 µM
[2] = human gut metagenome, 24 h, 2 µM; remark: listed apart in the source
[3] = human gut metagenome, 24 h, 2 µM; remark: listed apart in the source
[4] = (§1) The drug is tested on Z-002 corresponding to rabbit gut metagenome with ENA study accession number: PRJEB37062 and ENA sample accession number: ERS12561802 for biotransformation under anaerobic condition. The drug concentrations were measured over 9 timepoints collected between 0 and 24 hours of incubation by liquid-chromatography-coupled mass spectrometry (LC–MS); details: 2 µM
[5] = as §1, with “WLS-006” for “Z-002”, “human” for “rabbit”, “ERS12561741” for “ERS12561802”; details: 2 µM
[6] = human gut metagenome, 24 h, 2 µM; remark: listed apart in the source
[7] = as §1, with “Z-003” for “Z-002”, “pig” for “rabbit”, “ERS12561803” for “ERS12561802”; details: 2 µM
[8] = human gut metagenome, 24 h, 2 µM; remark: listed apart in the source
[9] = human gut metagenome, 24 h, 2 µM; remark: listed apart in the source
[10] = as §1, with “Z-014” for “Z-002”, “rat” for “rabbit”, “ERS12561814” for “ERS12561802”; details: 2 µM
[11] = human gut metagenome, 24 h, 2 µM; remark: listed apart in the source
[12] = as §1, with “Z-019” for “Z-002”, “rat” for “rabbit”, “ERS12561818” for “ERS12561802”; details: 2 µM
[13] = as §1, with “Z-009” for “Z-002”, “pig” for “rabbit”, “ERS12561809” for “ERS12561802”; details: 2 µM
[14] = human gut metagenome, 24 h, 2 µM; remark: listed apart in the source
[15] = human gut metagenome, 24 h, 2 µM; remark: listed apart in the source
[16] = human gut metagenome, 24 h, 2 µM; remark: listed apart in the source
[17] = as §1, with “WLS-098” for “Z-002”, “human” for “rabbit”, “ERS12561754” for “ERS12561802”; details: 2 µM
[18] = human gut metagenome, 24 h, 2 µM; remark: listed apart in the source
[19] = human gut metagenome, 24 h, 2 µM; remark: listed apart in the source
[20] = human gut metagenome, 24 h, 2 µM; remark: listed apart in the source
Further: call rule not given here.

Structure (SMILES): CNC(=C[N+](=O)[O-])NCCSCc1ccc(CN(C)C)o1 [RANITIDINE]
- Bacterial Biotransformation [1]: Compound NOT metabolized
- Bacterial Biotransformation [2]: Compound metabolized
- Bacterial Biotransformation [3]: Compound metabolized
- Bacterial Biotransformation [4]: Compound metabolized
- Bacterial Biotransformation [5]: Compound metabolized
- Bacterial Biotransformation [6]: Compound NOT metabolized
- Bacterial Biotransformation [7]: Compound metabolized
- Bacterial Biotransformation [8]: Compound metabolized
- Bacterial Biotransformation [9]: Compound NOT metabolized
- Bacterial Biotransformation [10]: Compound metabolized
- Bacterial Biotransformation [11]: Compound NOT metabolized
- Bacterial Biotransformation [12]: Compound metabolized
- Bacterial Biotransformation [13]: Compound metabolized
- Bacterial Biotransformation [14]: Compound metabolized
- Bacterial Biotransformation [15]: Compound metabolized
- Bacterial Biotransformation [16]: Compound NOT metabolized
- Bacterial Biotransformation [17]: Compound NOT metabolized
- Bacterial Biotransformation [18]: Compound metabolized
- Bacterial Biotransformation [19]: Compound NOT metabolized
- Bacterial Biotransformation [20]: Compound NOT metabolized

Structure (SMILES): O=C(Nc1ccccc1)OCC(CN1CCCCC1)OC(=O)Nc1ccccc1 (stereo not given) [DIPERODON]
- Bacterial Biotransformation [1]: Compound NOT metabolized
- Bacterial Biotransformation [2]: Compound metabolized
- Bacterial Biotransformation [3]: Compound NOT metabolized
- Bacterial Biotransformation [4]: Compound NOT metabolized
- Bacterial Biotransformation [5]: Compound NOT metabolized
- Bacterial Biotransformation [6]: Compound metabolized
- Bacterial Biotransformation [7]: Compound metabolized
- Bacterial Biotransformation [8]: Compound metabolized
- Bacterial Biotransformation [9]: Compound metabolized
- Bacterial Biotransformation [10]: Compound NOT metabolized
- Bacterial Biotransformation [11]: Compound metabolized
- Bacterial Biotransformation [12]: Compound NOT metabolized
- Bacterial Biotransformation [13]: Compound metabolized
- Bacterial Biotransformation [14]: Compound NOT metabolized
- Bacterial Biotransformation [15]: Compound NOT metabolized
- Bacterial Biotransformation [16]: Compound NOT metabolized
- Bacterial Biotransformation [17]: Compound metabolized
- Bacterial Biotransformation [18]: Compound NOT metabolized
- Bacterial Biotransformation [19]: Compound metabolized
- Bacterial Biotransformation [20]: Compound metabolized

Structure (SMILES): NC12CC3CC(CC(C3)C1)C2 [AMANTADINE]
- Bacterial Biotransformation [1]: Compound NOT metabolized
- Bacterial Biotransformation [2]: Compound NOT metabolized
- Bacterial Biotransformation [3]: Compound NOT metabolized
- Bacterial Biotransformation [4]: Compound NOT metabolized
- Bacterial Biotransformation [5]: Compound NOT metabolized
- Bacterial Biotransformation [6]: Compound NOT metabolized
- Bacterial Biotransformation [7]: Compound NOT metabolized
- Bacterial Biotransformation [8]: Compound NOT metabolized
- Bacterial Biotransformation [9]: Compound NOT metabolized
- Bacterial Biotransformation [10]: Compound NOT metabolized
- Bacterial Biotransformation [11]: Compound NOT metabolized
- Bacterial Biotransformation [12]: Compound NOT metabolized
- Bacterial Biotransformation [13]: Compound NOT metabolized
- Bacterial Biotransformation [14]: Compound NOT metabolized
- Bacterial Biotransformation [15]: Compound NOT metabolized
- Bacterial Biotransformation [16]: Compound NOT metabolized
- Bacterial Biotransformation [17]: Compound NOT metabolized
- Bacterial Biotransformation [18]: Compound NOT metabolized
- Bacterial Biotransformation [19]: Compound NOT metabolized
- Bacterial Biotransformation [20]: Compound NOT metabolized

Structure (SMILES): COC1=CC(=O)C[C@@H](C)[C@]12Oc1c(Cl)c(OC)cc(OC)c1C2=O [GRISEOFULVIN]
- Bacterial Biotransformation [1]: Compound NOT metabolized
- Bacterial Biotransformation [2]: Compound metabolized
- Bacterial Biotransformation [3]: Compound metabolized
- Bacterial Biotransformation [4]: Compound metabolized
- Bacterial Biotransformation [5]: Compound metabolized
- Bacterial Biotransformation [6]: Compound metabolized
- Bacterial Biotransformation [7]: Compound metabolized
- Bacterial Biotransformation [8]: Compound metabolized
- Bacterial Biotransformation [9]: Compound metabolized
- Bacterial Biotransformation [10]: Compound metabolized
- Bacterial Biotransformation [11]: Compound metabolized
- Bacterial Biotransformation [12]: Compound NOT metabolized
- Bacterial Biotransformation [13]: Compound metabolized
- Bacterial Biotransformation [14]: Compound metabolized
- Bacterial Biotransformation [15]: Compound NOT metabolized
- Bacterial Biotransformation [16]: Compound NOT metabolized
- Bacterial Biotransformation [17]: Compound NOT metabolized
- Bacterial Biotransformation [18]: Compound metabolized
- Bacterial Biotransformation [19]: Compound metabolized
- Bacterial Biotransformation [20]: Compound metabolized

Structure (SMILES): CCN(CC)C(C)CN1c2ccccc2Sc2ccccc21 (stereo not given) [ETHOPROPAZINE]
- Bacterial Biotransformation [1]: Compound metabolized
- Bacterial Biotransformation [2]: Compound metabolized
- Bacterial Biotransformation [3]: Compound metabolized
- Bacterial Biotransformation [4]: Compound metabolized
- Bacterial Biotransformation [5]: Compound metabolized
- Bacterial Biotransformation [6]: Compound metabolized
- Bacterial Biotransformation [7]: Compound metabolized
- Bacterial Biotransformation [8]: Compound metabolized
- Bacterial Biotransformation [9]: Compound metabolized
- Bacterial Biotransformation [10]: Compound NOT metabolized
- Bacterial Biotransformation [11]: Compound metabolized
- Bacterial Biotransformation [12]: Compound NOT metabolized
- Bacterial Biotransformation [13]: Compound metabolized
- Bacterial Biotransformation [14]: Compound metabolized
- Bacterial Biotransformation [15]: Compound metabolized
- Bacterial Biotransformation [16]: Compound metabolized
- Bacterial Biotransformation [17]: Compound metabolized
- Bacterial Biotransformation [18]: Compound metabolized
- Bacterial Biotransformation [19]: Compound metabolized
- Bacterial Biotransformation [20]: Compound metabolized
